Literature values in PMC2749889 (Journal of neurochemistry, 2009).
pIC50: −log10 of the molar value.

Tests used:
α6 ^* = conditions: ref Klink et al. 2001; Mogg et al. 2002
α9 homomers = conditions: read-out: IC50, α9 homomers; ref Verbitsky et al. 2000

## CCN1C[C@]2(COC(=O)c3ccccc3N3C(=O)C[C@H](C)C3=O)CC[C@H](OC)[C@@]34[C@@H]5C[C@H]6[C@H](OC)[C@@H]5[C@](O)(C[C@@H]6OC)[C@@](O)([C@@H](OC)[C@H]23)[C@@H]14 [MLA, Methyllycaconitine]
α6 ^*
  block of α6 ^*: blocks
α9 homomers
  pIC50: 8.96
